According to US9090944B2, “Biomarker DACT1 for gastric cancer” (The Chinese University of Hong Kong, priority 2011, dated 2015):

What was measured:
AGS = experiment: Demethylation treatment with 5-Aza, DACT1 expression by semiquantitative RT-PCR; format: cell-based, human; conditions: 2 μM 5-Aza for 5 days
Method: (§1) Semiquantitative RT-PCR was performed in a total volume of 25 μL reaction containing GeneAmp 1×PCR Buffer II (Applied Biosystems), 2.5 mM MgCl2, 200 μM each of dNTP, 200 nM each of primers, 0.5 U of AmpliTaq Gold DNA polymerase (Applied Biosystems) and 30˜50 ng cDNA. The PCR program started with an initial denaturation at 95° C. for 10 min, followed by 32-35 cycles (94° C. for 30 sec, annealing temperature for 30 sec, and 72° C. for 30 sec) of amplification, with a final extension at 72° C. for 10 min. The PCR bands were visualized under ultraviolet light and photographed. The expression of the target gene was normalized by the expression of house keeping gene β-actin, which served as an internal control. Cells were seeded at a density of […]/100-mm dishes and grew for 24 hr. Cells were then treated with 2 μM 5-aza-2′-deoxycytidine (“5-Aza”) (Sigma-Aldrich) for 5 days. The 5-Aza was replenished every day. The gene expression of DACT1 was evaluated using semiquantitative RT-PCR.

KatoIII = experiment: as above; format: cell-based, human; conditions: 2 μM 5-Aza for 5 days
Method: as §1

Nc1ncn([C@H]2C[C@H](O)[C@@H](CO)O2)c(=O)n1 [5-Aza, 5-aza-2′-deoxycytidine]
DACT1 expression after demethylation treatment (AGS): restored DACT1 expression
DACT1 expression after demethylation treatment (KatoIII): restored DACT1 expression
